Measured values taken from US20100305036A1, “COMBINATION OF PROTEIN TYROSINE PHOSPHATASE INHIBITORS AND HUMAN GROWTH HORMONE FOR THE TREATMENT OF MUSCLE ATROPHY AND RELATED DISORDERS” (priority 2007, published 2010).

Experiments:
C2C12 myotubes = experiment: C2C12 myotube diameter; type: cell-based
Excerpt: C2C12 cells can be obtained from the American Type Tissue Culture Bank and propagated in standard growth media containing 10% horse serum. When cells reached 70% confluency the media is changed to differentiation media containing 2% horse serum. Three days after start of differentiation multinucleated myotubes should be present, with visible striations, indicating differentiation. hGH can be used as a positive control for activating the IGF-1 receptor, or alternatively, combined with a PTP1B inhibitor to assess synergistic or additive effects. Consequently, PTP1B inhibitors and/or hGH can be added to the media for various times.
Myotube Diameter Myotube diameter can be assessed 24 hours after addition of PTP1B inhibitor and/or hGH to myotube media. Cells are washed in saline and fixed in gluteraldehyde. Images can be obtained on an inverted microscope using the green fluorescent channel to visualize the auto-fluorescence induced by the gluteraldehyde fixation. Images are printed out at standard magnification and the sixty largest myotubes measured at their largest diameter (as previously published). The fifty largest myotubes in each group can be statistically compared using the Kruskal-Wallis One Way Analysis on Ranks. Differences are considered significant if p<0.05 and designated by an asterisk in FIG. 1. […]

AKT phosphorylation = settings: hGH treatment of C2C12; cited from earlier work

## IGF1: human insulin-like growth factor1 or IGF1, however formulated or stabilized
C2C12 myotubes; IGF1 alone added to C2C12 myotubes media at 10 ng/ml
  myotube hypertrophy: significantly hypertrophied

## hGH: Human Growth Hormone, can be purchased from Bachem H-3148
AKT phosphorylation
  AKT phosphorylation: cause AKT phosphorylation
C2C12 myotubes; hGH alone
  C2C12 myotube diameter: significant increase
